Like-named read-outs stand apart in the source and are kept apart here.
How the values were obtained:
[1] = system: Swiss mice; assay: LPS airway inflammation, 24 hour time point; type: in vivo, mouse; conditions: 24 hours after LPS
Experimental: Given the short half-life of PXS-4728, a second dose was administered to ensure that newly synthesized SSAO would also be blocked.

[2] = biological target: carbonic anhydrase II (Homo sapiens, UniProt P00918); assay: Carbonic anhydrase II activity; type: biochemical
[3] = biological target: T1, Recombinant lysyl oxidase like 2 (Homo sapiens, UniProt Q9Y4K0); assay: LOXL2 fluorometric enzyme activity assay; type: biochemical
T1 construct: purchased R&D systems
T1 sequence (Q9Y4K0 26-774): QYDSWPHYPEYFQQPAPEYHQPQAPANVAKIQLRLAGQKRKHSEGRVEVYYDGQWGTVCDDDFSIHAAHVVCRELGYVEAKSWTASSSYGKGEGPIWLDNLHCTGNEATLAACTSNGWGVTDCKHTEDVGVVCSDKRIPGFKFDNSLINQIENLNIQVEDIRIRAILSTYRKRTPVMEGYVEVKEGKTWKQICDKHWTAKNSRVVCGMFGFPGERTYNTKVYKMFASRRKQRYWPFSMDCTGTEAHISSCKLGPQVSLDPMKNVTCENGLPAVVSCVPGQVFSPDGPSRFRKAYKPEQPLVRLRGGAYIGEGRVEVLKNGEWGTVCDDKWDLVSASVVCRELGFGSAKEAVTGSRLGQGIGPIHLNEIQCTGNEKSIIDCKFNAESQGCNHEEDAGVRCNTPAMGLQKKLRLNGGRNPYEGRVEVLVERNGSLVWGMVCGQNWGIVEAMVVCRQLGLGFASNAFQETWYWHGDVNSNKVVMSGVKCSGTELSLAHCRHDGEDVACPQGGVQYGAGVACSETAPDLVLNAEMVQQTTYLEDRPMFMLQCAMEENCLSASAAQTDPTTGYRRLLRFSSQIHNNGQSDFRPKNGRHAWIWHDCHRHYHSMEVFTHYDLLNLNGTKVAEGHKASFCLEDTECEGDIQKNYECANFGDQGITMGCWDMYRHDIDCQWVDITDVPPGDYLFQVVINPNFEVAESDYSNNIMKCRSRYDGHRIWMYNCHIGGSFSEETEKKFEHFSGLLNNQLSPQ
Experimental: rhLOXL2 (lysyl oxidase like 2) was purchased from R&D systems and assay was performed in 1.2 M urea, 50 mM sodium borate buffer, pH 8.2. The substrate used was 10 mM putrescine and 100 μM of β-aminopropionitrile (βAPN, Sigma-Aldrich) was added to the low controls.

[4] = system: over 100 different macromolecular targets; assay: Off-target activity, Ricerca lead seeker selectivity panel; conditions: other amine oxidases or over 100 different macromolecular targets
[5] = system: C57/BL6 mice; assay: Cecal ligation and puncture (CLP) induced sepsis
[6] = Plasma stability; type: in vitro ADME; conditions: rat plasma, 1 hour incubation
[7] = Pharmacokinetics in Wistar rats; type: in vivo; conditions: rat; for Cmax: read-out: Apparent concentration at curve maximum Cmax
Experimental: (§1) Studies were performed by ICP Firefly, Pharmalegacy and Sundia with local ethics approval. […] Plasma was analyzed for PXS-4728A by high-performance liquid chromatography-mass spectrometry/mass spectrometry. Basic pharmacokinetic parameters were estimated using PK Solutions software (Summit Research Services).

[8] = system: BALB/c mice; assay: CXCL1/KC induced cremaster inflammation, intravital microscopy; type: in vivo, mouse; conditions: 6 mg.kg^−1 oral, 1 hour prior to rCXCL1
Experimental: BALB/c mice were anesthetized and 500 ng of murine rCXCL1 in 0.2 ml of saline was administered locally by s.c. injection beneath the right scrotal skin using a 30-G needle, 2 hours before exteriorization. The left cremaster was then prepared for intravital microscopy, as previously described. Briefly, an incision was made in the scrotal skin to expose the left cremaster muscle, which was then carefully removed from the associated fascia. A lengthwise incision was made on the ventral surface of the cremaster muscle using a cautery. The testicle and the epididymis were separated from the underlying muscle and were moved into the abdominal cavity. The muscle was then spread out over an optically clear viewing pedestal and was secured along the edges with a 4–0 suture. […] A video camera (CDD; Sony) was used to project the images onto a monitor, and the images were recorded for playback analysis using a conventional DVD. […] The number of rolling and adherent leukocytes was determined offline during video playback analysis. […] The flux of rolling cells was measured as the number of rolling cells passing by a given point in the venule per minute. A leukocyte was considered to be adherent if it remained stationary for at least 30 s, and total leukocyte adhesion was quantified as the number of adherent cells within a 100 μm length of venule.

[9] = Pharmacokinetics in BALB/c mice; type: in vivo; conditions: mouse; for Cmax: read-out: Apparent concentration at curve maximum Cmax
Experimental: as §1

[10] = Water solubility; type: physicochemical
[11] = Plasma stability; type: in vitro ADME; conditions: human plasma, 1 hour incubation
[12] = system: HepG2 cells; assay: Cell toxicity in HepG2 cells; type: cell-based; conditions: highest concentration tested 100 μM
[13] = 4 mg/kg pre-treatment, 6 mg/kg at 6 hours
[14] = 6 hours, 6 mg.kg^−1 oral 1 hour prior to surgery
[15] = 6 hours, PXS-4728A 6 mg.kg^−1, dexamethasone 5 mg.kg^−1, oral 1 hour prior to surgery

SMILES: CC(C)(C)NC(=O)c1ccc(OC/C(=C/F)CN)cc1 [PXS-4728A]
- Circulating neutrophils [1]: had no effect
- Total cells in blood [1]: had no effect
- Influx of neutrophils in BALF [1, 13]: reduced
- Influx of total cells in BALF [1, 13]: reduced
- Activity for carbonic anhydrase II [2]: removing all activity
- IC50 [3]: 10.4 µM
- Off-target activity [4]: does not have any significant off-target activity
- Myeloperoxidase in the lung [5, 14]: reduction
- Neutrophils in bronchoalveolar lavage [5, 14]: reduction
- Total cells in bronchoalveolar lavage [5, 14]: reduction
- Peritoneal neutrophils [5, 15]: not affected
- Total peritoneal inflammatory cells [5, 15]: not affected
- Survival rate ([5]; treated 1 hour prior and daily thereafter, control animals 50%, p = 0.057): 90%
- Plasma stability, remaining [6]: > 90%
- Cmax ([7]; Wistar, plasma, intravenous 3 mg.kg^−1): 4210 ng/mL
- clearance ([7]; Wistar, plasma, intravenous 3 mg.kg^−1, read-out: Clearance CL): 23 mL/min/kg
- Cmax ([7]; Wistar, plasma, oral 6 mg.kg^−1): 720 ng/mL
- Tmax ([7]; Wistar, plasma, oral 6 mg.kg^−1, read-out: Time of maximal concentration Tmax): 49.8 min
- half-life ([7]; Wistar, plasma, iv, 3 mg/kg, intravenous 3 mg.kg^−1, read-out: Apparent half-life, t1/2 (converted)): ~60 min
- bioavailability ([7]; Wistar, plasma, oral, 6 mg.kg^−1, rat, oral 6 mg.kg^−1 / i.v. 3 mg.kg^−1): > 55%
- Clearance CL ([7]; oral 6 mg.kg^−1): 45 mL·kg/min
- Bioavailability (%) ([7]; oral 6 mg.kg^−1 / i.v. 3 mg.kg^−1): 55%
- CXCL1/KC increased number of adhering leukocytes [8]: abolished
- CXCL1/KC increased number of rolling leukocytes [8]: abolished
- bioavailability ([9]; BALB/c, plasma, oral, 10 mg.kg^−1, mouse, oral 10 mg.kg^−1 / i.v. 5 mg.kg^−1): > 90%
- Cmax ([9]; BALB/c, plasma, intravenous 5 mg.kg^−1): 1600 ng/mL
- half-life ([9]; BALB/c, plasma, intravenous 5 mg.kg^−1, read-out: Apparent half-life, t1/2 (converted)): 36 min
- clearance ([9]; BALB/c, plasma, intravenous 5 mg.kg^−1, read-out: Clearance CL): 80 mL/min/kg
- Cmax ([9]; BALB/c, plasma, oral 10 mg.kg^−1): 1380 ng/mL
- Tmax ([9]; BALB/c, plasma, oral 10 mg.kg^−1, read-out: Time of maximal concentration Tmax): 15 min
- Clearance CL ([9]; oral 10 mg.kg^−1): 98 mL·kg/min
- Bioavailability (%) ([9]; oral 10 mg.kg^−1 / i.v. 5 mg.kg^−1): 92%
- solubility ([10]; Figure 1, read-out: Solubility (H2O)): > 10000 µg/mL
- solubility ([10]; pH 7.4, aqueous buffer, read-out: Water solubility): > 10000 µg/mL
- Plasma stability, remaining [11]: > 90%
- Cell toxicity [12]: does not induce cell toxicity

— paper PMC4389443 (Respiratory Research, 2015)
